These results are taken from US7713963B2, “Acylated indanyl amines and their use as pharmaceuticals” (sanofi-aventis Deutschland GmbH, priority 2001, dated 2010).

In this test the test system is eNOS promoter. As to the kind of experiment: Activation of eNOS transcription (eNOS promoter-luciferase reporter gene assay). Format: cell-based, human. The following applies: for maximal fold induction: read-out: TIR (max). As to the method:
Measurement of activation of eNOS transcription Activation of eNOS transcription was measured as described in detail in Li et al. “Activation of protein kinase C alpha and/or epsilon enhances transcription of the human endothelial nitric oxide synthase gene”, Mol. Pharmacol. 1998; 53: 630-637. Briefly, a 3.5 kB long fragment 5′ of the starting codon of the eNOS gene was cloned, sequenced and cloned in firefly luciferase expression plasmids to monitor activation of the eNOS promoter by reporter gene activity. A human endothelial cell line stable transfected and expressing this promoter-reporter construct was used for compound testing. Cells were incubated for 18 h with compounds. All compounds were dissolved in sterile DMSO. A final concentration of 0.5% DMSO in complete medium was allowed. Induction of reporter gene expression in these cells was measured using a standard luciferase assay system (Promega, Cat. No E150) according to the manufacturer's instructions. Luciferase induction in cells incubated with compounds were compared to those incubated with solvent alone. The ratio of both activities (transcription induction ratio, TIR) was plotted as a function of compound concentration. […] EC50 values of transcription induction ratios as a function of compound concentration were determined graphically.

Setting [1] is: Homo sapiens, 18 h, maximum transcription induction ratio (luciferase with compound / solvent alone), 18 h incubation.
[2] abbreviates: Homo sapiens, Endothelial cell, 18 h, EC50 of transcription induction ratio, determined graphically, human endothelial cell line, 18 h incubation, read-out: EC-50.
Where [3] appears, read: EC50 of transcription induction ratio, determined graphically, human endothelial cell line, 18 h incubation, read-out: EC-50.

The structures appear in SMILES notation. pEC50: −log10 of the molar value. Where two headings read alike, the source gives them in different places.

In the case of `O=C(NC1Cc2ccccc2C1)c1ccc(OCC(F)(F)F)cc1` [Compound 386B, N-INDAN-2-YL-4-(2,2,2-TRIFLUORO-ETHOXY)-BENZAMIDE], the maximal fold induction under setting [1] was 2.5. Further, the pEC50 under setting [2] was 6.51. In the case of `O=C(NC1Cc2ccccc2C1)c1cccc(Oc2ccccc2)c1` [Compound 286, N-INDAN-2-YL-3-PHENOXY-BENZAMIDE], under setting [1], the maximal fold induction was found to be 2.6. Also, under setting [2], the pEC50 is 4.59. For `Cc1cc(C(=O)NC2Cc3ccccc3C2)c(C)[nH]1` [Compound 216, 2,5-DIMETHYL-1H-PYRROLE-3-CARBOXYLIC ACID INDAN-2-YLAMIDE], the maximal fold induction under setting [1] was 2.8. For the same compound, the pEC50 under setting [2] is 6.15. Turning to `O=C(NC1Cc2ccccc2C1)c1c(F)ccc(F)c1F` [Compound 274, 2,3,6-TRIFLUORO-N-INDAN-2-YL-BENZAMIDE], under setting [2], the pEC50 is 4.68.

Consider `O=C(NC1Cc2cc(Br)c(Br)cc2C1)c1ccc(F)cc1` [Compound 397, N-(5,6-DIBROMO-INDAN-2-YL)-4-FLUORO-BENZAMIDE], for which the maximal fold induction under setting [1] came out at 1.7. For the same compound, the pEC50 under setting [2] was 4.52. As for `CCOc1cc(C(=O)NC2Cc3ccccc3C2)ccc1OC` [Compound 25, 3-ETHOXY-4-METHOXY-N-INDAN-2-YL-BENZAMIDE], under setting [1], the maximal fold induction amounted to 2.7. Besides, the pEC50 under setting [2] is 4.92. For `O=C(NC1Cc2cccc(C(F)(F)F)c2C1)c1ccc(F)cc1` (stereo not shown) [Compound 439, 4-FLUORO-N-(4-TRIFLUOROMETHYL-INDAN-2-YL)-BENZAMIDE] the same measures were 2.6 and 5.05. In the same order, the values of `Cc1ccc(C(=O)NC2Cc3ccccc3C2)c(O)c1` [Compound 22, 2-HYDROXY-N-INDAN-2-YL-4-METHYL-BENZAMIDE] are 2.1 and 5.15.

For `O=C(NC1Cc2ccccc2C1)c1cccc(Br)c1` [Compound 382, 3-BROMO-N-INDAN-2-YL-BENZAMIDE], under setting [1], the maximal fold induction worked out at 2.5. Under setting [2], the pEC50 is 4.68. For the compound `CCc1cccc2c1CC(NC(=O)c1ccc(F)cc1)C2` (stereo not shown) [Compound 428, N-(4-ETHYL-INDAN-2-YL)-4-FLUORO-BENZAMIDE], under setting [1], the maximal fold induction came to 2.8. In addition, the pEC50 under setting [2] is 6.08. Take `CC(=O)Oc1cc(C)ccc1C(=O)NC1Cc2ccccc2C1` [Compound 7, ACETIC ACID 2-(INDAN-2-YL-CARBAMOYL)-5-METHYL-PHENYLESTER]: the maximal fold induction (Homo sapiens, 18 h) worked out at 2.57. This compound also gave a pEC50 (Homo sapiens, Endothelial cell, 18 h) of 7.00. As to `O=C(NC1Cc2cccc(C=CC(=O)N3CCOCC3)c2C1)c1ccc(F)cc1` (stereo not shown) [Compound 412, 4-FLUORO-N-[4-(3-MORPHOLIN-4-YL-3-OXO-PROPENYL)-NDAN-2-YL]-BENZAMIDE], the pEC50 under setting [3] was 6.00. In addition, where the note is “maximum transcription induction ratio (luciferase with compound / solvent alone), 18 h incubation”, the “TIR (max)” value is 2.5.

`O=C(NC1Cc2ccccc2C1)c1ccc2ccccc2c1` [Compound 295, NAPHTHALENE-2-CARBOXYLIC ACID INDAN-2-YLAMIDE]: the maximal fold induction under setting [1] was determined as 2.4. Besides, the pEC50 under setting [2] is 6.07. In the same order, the values of `CCOc1cccc(C(=O)NC2Cc3ccccc3C2)c1` [Compound 306, 3-ETHOXY-N-INDAN-2-YL-BENZAMIDE] are 2.7 and 6.58.

`Cc1ccc2c(c1)CC(NC(=O)c1ccc(F)cc1)C2` (stereo not shown) [Compound 5, 4-FLUORO-N-(5-METHYL-INDAN-2-YL)-BENZAMIDE]: under setting [1], the maximal fold induction turned out to be 2.5. The pEC50 under setting [2] was 4.52. For `O=C(NC1Cc2ccccc2C1)c1ccc(Oc2ccccc2)cc1` [Compound 32, 4-PHENOXY-N-INDAN-2-YL-BENZAMIDE] the same measures were 4 and 5.77. As for `CCc1sccc1C(=O)NC1Cc2ccccc2C1` [Compound 366, 2-ETHYL-THIOPHENE-3-CARBOXYLIC ACID INDAN-2-YLAMIDE], under setting [1], the maximal fold induction was found to be 2.5. In addition, the pEC50 under setting [2] was 4.43.

As to `O=C(NC1Cc2ccccc2C1)c1cccc(Cl)c1` [Compound 283, 3-CHLORO-N-INDAN-2-YL-BENZAMIDE], the maximal fold induction under setting [1] is 2.5. Besides, the pEC50 under setting [2] was 4.82. In the same order, the values of `Cc1cc(C(=O)NC2Cc3ccccc3C2)ccc1Cl` [Compound 27, 4-CHLORO-3-METHYL-N-INDAN-2-YL-BENZAMIDE] are 3.6 and 6.70. Regarding `O=C(NC1Cc2ccccc2C1)c1ccc(-n2ccnc2)cc1` [Compound 328, 4-IMIDAZOL-1-YL-N-INDAN-2-YL-BENZAMIDE], the maximal fold induction under setting [1] came out at 2.4. Moreover, the pEC50 under setting [2] is 4.62.

Turning to `O=C(NC1Cc2ccccc2C1)c1ccc(F)cc1Br` [Compound 61, 2-BROMO-4-FLUORO-N-INDAN-2-YL-BENZAMIDE], the maximal fold induction under setting [1] is 2.6. In addition, under setting [2], the pEC50 was 6.15. `O=C(NC1Cc2ccccc2C1)c1ccc(Cl)cc1Cl` [Compound 277, 2,4-DICHLORO-N-INDAN-2-YL-BENZAMIDE]: the maximal fold induction under setting [1] is 3. Moreover, the pEC50 under setting [2] was 5.39. As to `CCOc1ccc(C(=O)NC2Cc3ccccc3C2)c(O)c1` [Compound 23, 4-ETHOXY-2-HYDROXY-N-INDAN-2-YL-BENZAMIDE], the maximal fold induction under setting [1] was found to be 2.2. For the same compound, the pEC50 under setting [2] was 5.30. In the same order, the values of `O=C(NC1Cc2ccccc2C1)c1ccc(Br)s1` [Compound 41, 5-BROMO-THIOPHEN-2-CARBOXYLIC ACID-INDAN-2-YLAMIDE] are 2.4 and 6.74. For `Cc1ccc2c(Cl)c(C(=O)NC3Cc4ccccc4C3)sc2c1` [Compound 332, 3-CHLORO-6-METHYL-BENZO[B]THIOPHENE-2-CARBOXYLIC ACID INDAN-2-YLAMIDE] the same measures were 2 and 5.40. With `Cc1ccc(F)cc1C(=O)NC1Cc2ccccc2C1` [Compound 248, 5-FLUORO-N-INDAN-2-YL-2-METHYL-BENZAMIDE], under setting [1], the maximal fold induction amounted to 2.8. For the same compound, the pEC50 under setting [2] was 5.11.

Turning to `CN(C)C(=O)C=Cc1cccc2c1CC(NC(=O)c1ccc(F)cc1)C2` (stereo not shown) [Compound 411, N-[4-(2-DIMETHYLCARBAMOYL-VINYL)-INDAN-2-YL]-4-FLUORO-BENZAMIDE], the maximal fold induction under setting [1] came to 2.5. The pEC50 under setting [2] is 5.70. For `CCCc1c(C(=O)NC2Cc3ccccc3C2)cnn1-c1ccc(Cl)cc1` [Compound 322, 1-(4-CHLORO-PHENYL)-5-PROPYL-1H-PYRAZOLE-4-CARBOXYLIC ACID INDAN-2-YLAMIDE] the same measures were 2.3 and 4.64.

In the case of `O=C(NC1Cc2cccc(Br)c2C1)c1ccc(F)cc1` (single isomer, unassigned) [Compound 396A, N-(4-BROMO-INDAN-2-YL)-4-FLUORO-BENZAMIDE], under setting [1], the maximal fold induction was determined as 3.55. For the same compound, the pEC50 under setting [2] was 6.22. As for `Cc1cccc(C(=O)NC2Cc3ccccc3C2)c1F` [Compound 249, 2-FLUORO-N-INDAN-2-YL-3-METHYL-BENZAMIDE], the maximal fold induction under setting [1] came to 2.5. The pEC50 under setting [2] was 4.82.

As for `O=C(NC1Cc2ccccc2C1)c1ccc(Cl)cc1` [Compound 69, 4-CHLORO-N-INDAN-2-YL-BENZAMIDE], under setting [1], the maximal fold induction worked out at 4.2. The pEC50 under setting [2] is 6.40. With `CS(=O)(=O)c1ccc(C(=O)NC2Cc3ccccc3C2)c(Cl)c1` [Compound 312, 2-CHLORO-N-INDAN-2-YL-4-METHANESULFONYL-BENZAMIDE], the maximal fold induction under setting [1] came to 2.2. In addition, the pEC50 under setting [2] was 4.80. For `Cc1ccccc1C(=O)NC1Cc2ccccc2C1` [Compound 281, N-INDAN-2-YL-2-METHYL-BENZAMIDE] the same measures were 3 and 6.16. For `O=C(NC1Cc2ccccc2C1)c1cccc2ccccc12` [Compound 294, NAPHTHALENE-1-CARBOXYLIC ACID INDAN-2-YLAMIDE] the same measures were 2.2 and 4.85. For `Cc1cccc2c1CC(NC(=O)c1ccc(F)cc1)C2` (single isomer, unassigned; (-)) [Compound 1a, (−)-4-Fluoro-N-(4-methyl-indan-2-yl)-benzamide], the pEC50 under setting [3] is 5.22. Under setting [1], the maximal fold induction was 2.8. Regarding `Nc1c(C(=O)NC2Cc3ccccc3C2)cnn1-c1ccccc1` [Compound 427, 5-AMINO-1-PHENYL-1H-PYRAZOLE-4-CARBOXYLIC ACID INDAN-2-YLAMIDE], the maximal fold induction under setting [1] stood at 2.5. Under setting [2], the pEC50 was 5.43. For `COc1ccc(C(=O)NC2Cc3ccccc3C2)cc1` [Compound 291, N-INDAN-2-YL-4-METHOXY-BENZAMIDE] the same measures were 2.8 and 6.62. For `Cc1c(Cl)cccc1C(=O)NC1Cc2ccccc2C1` [Compound 257, 3-CHLORO-N-INDAN-2-YL-2-METHYL-BENZAMIDE] the same measures were 2.7 and 5.37. As for `Cc1cc(C)c(C(=O)NC2Cc3ccccc3C2)cn1` [Compound 189, N-INDAN-2-YL-4,6-DIMETHYL-NICOTINAMIDE], the maximal fold induction under setting [1] came out at 2.2. Also, the pEC50 under setting [2] was 5.00. With `Cc1nc(C)c(C(=O)NC2Cc3ccccc3C2)s1` [Compound 233, 2,4-DIMETHYL-THIAZOLE-5-CARBOXYLIC ACID INDAN-2-YLAMIDE], the maximal fold induction under setting [1] was found to be 2.5. The pEC50 under setting [2] is 4.89.
